Publication PMC9728284, “Inhibition of Herpes Simplex Viruses, Types 1 and 2, by Ginsenoside 20(S)-Rg3” (Journal of Microbiology and Biotechnology, 2019)
Several values for one entry are separate records, joined by “and”; a condition that tells them apart may be missing. Equal entries are not always repeated.

Tests used:
[1] = test system: HSV-1; test: HSV-1 inhibition in Vero cells (PrestoBlue, compound and virus added simultaneously); assay type: cell-based, Herpes simplex virus type 1 (MacIntyre strain); settings: for IC50: Human alphaherpesvirus 1, two-fold dilutions, linear regression, Vero cells, read-out: IC50 against HSV-1
Experimental: (§1) Herpes simplex virus type 1 (HSV-1, MacIntyre strain, ATCC, VR-539) or herpes simplex virus type 2 (HSV-2, ATCC, VR-734) were used in these studies. Virus titer was determined by plaque assay. Briefly, following 2 h adsorption of various virus dilutions onto a Vero cell monolayer in a 24-well plate, the medium was removed and cells were overlaid with 1.5% carboxymethylcellulose (Sigma) and incubated 48 h at 37°C with 5% CO2. After incubation, cells were fixed with methanol, stained with Giemsa (Sigma) and plaques were counted. Each virus dilution was prepared in quadruplicate.
(§2) All ginsenosides, isomers, and protopanaxadiols were evaluated for toxic effects on Vero cells prior to anti-viral testing. Cells were seeded at 5,000 cells/well in a black 96-well plate with clear bottom in a volume of 100 µl and allowed to attach for 24 h. The P. ginseng compounds were prepared in DMSO at 100 µM and were taken through serial two-fold dilutions to determine the concentration when the rate of cell death was less than 10%compared to control, untreated cells. Each dilution was tested in three wells and all assays were repeated three times. Following 48 h incubation at 37°C in 5% CO2, 11 µl of PrestoBlue (Invitrogen) was added to each well and the plate was incubated for an additional 30 min. PrestoBlue determines cell viability by changing from blue to red as resazurin is reduced to resorufin by viable cells. Following the PrestoBlue incubation, fluorescence was determined by spectrophotometric reading using Soft Max Pro (Molecular Diagnostics, USA).
(§3) For cytotoxicity testing, 4 µl of dilutions of the ginsenosides or protopanaxadiols were added to 396 µl of medium 199 and 100 µl of this mixture was added to each of three wells. For anti-viral testing, 4 µl of the non-toxic reagent and 4 µl of HSV-1 or HSV-2 diluted to an MOI of 0.1 were added to 392 µl of medium 199 and 100 µl of this was added to each of three wells. Virus inhibition was determined by comparing the cell death of reagent-exposed cells with cell death of control cells only receiving virus. The 50%inhibitory concentration (IC50) was determined through a series of two-fold dilutions and calculation by linear regression analysis.

[2] = test system: HSV-1; test: Time studies of HSV-1 inhibition (PrestoBlue); assay type: cell-based, Herpes simplex virus type 1 (MacIntyre strain); settings: for Percent Inhibition of HSV-1: 20(S)-Rg3 50 μM
Experimental: For virus inhibition studies described above, reagent 20(S)-Rg3 and virus were added to cells simultaneously. In an attempt to evaluate the potential mode of action of 20(S)-Rg3, various combinations of valacyclovir, 20(S)-Rg3 and HSV-1 were tested at different time periods. The following combinations were evaluated at both one hour and four hours:
• ● Virus applied to cells first (for one hour or four hours), followed by addition of valacyclovir, 20(S)-Rg3 or both valacyclovir and 20(S)-Rg3 to the cells • ● Valacyclovir or 20(S)-Rg3 or both valacyclovir and 20(S)-Rg3 applied to cells first (for one or four hours), followed by virus • ● Valacyclovir or 20(S)-Rg3 incubated together with virus first for one or four hours then added to cells
All procedures described for evaluation of virus inhibition were followed in identical fashion as outlined for the PrestoBlue procedure except valacyclovir was used at a constant concentration of 16 µM and 20(S)-Rg3 at 50 µM.

[3] = Cytotoxicity on Vero cells (PrestoBlue cell viability assay); assay type: cell-based; settings: African green monkey
Experimental: as §2, §3

[4] = test system: Vero cells; test: as above; assay type: cell-based
Experimental: as §2, §3

[5] = test system: HSV-1; test: Plaque reduction of HSV-1 on Vero cell monolayer; assay type: cell-based, Herpes simplex virus type 1 (MacIntyre strain); settings: valacyclovir 16 μM, 20(S)-Rg3 50 μM; for Number of Plaques: approximately 50 PFU/well, 48 h, ± standard error; for Percent Reduction (plaques of HSV-1): compared to control
Experimental: as §1
The plaque assay procedure also was used to evaluate the percent plaque reduction; the only procedural change was that a constant virus concentration was used (50 PFU/well). Plaque reduction was measured by comparing the control (virus only), with valacyclovir (16 µM) with virus or 20(S)-Rg3 (50 µM) with virus. Sample wells were evaluated in quadruplicate. Following the 2 h virus adsorption, the methylcellulose-medium containing the same concentrations of valacyclovir or 20(S)-Rg3 was added to the appropriate wells. After 48 h, plaques were fixed, stained and counted.

[6] = set-up: method as in New Drug Application #20-487/S-007, GlaxoSmithKline; settings: ref New Drug Application #20-487/S-007, GlaxoSmithKline; cited from earlier work
[7] = Cytotoxicity on Vero cells (PrestoBlue cell viability assay); assay type: cell-based; settings: African green monkey, read-out: Percent Cell Viability; for viability at 48 h, 500 μM: 20(S)-Rg3 500 μM
[8] = test system: normal WI 38 cells; set-up: method as in PMID 18365686; settings: 120 μM; cited from earlier work
[9] = test system: human carcinoma cells KB V20C; settings: cited from earlier work
[10] = test system: PC12 cells; settings: cited from earlier work
[11] = test system: HSV-2; test: HSV-2 inhibition in Vero cells (PrestoBlue, compound and virus added simultaneously); assay type: cell-based, herpes simplex virus type 2; settings: for Percent Inhibition of HSV-2: ± standard error
Experimental: as §1, §2, §3

[12] = each compound at its non-toxic concentration (Table 1 c1), MOI 0.1, value in parentheses = higher cell death than virus-alone control

## CC(C)=CCC[C@](C)(O[C@@H]1O[C@H](CO)[C@@H](O)[C@H](O)[C@H]1O)[C@H]1CC[C@]2(C)[C@@H]1[C@H](O)C[C@@H]1[C@@]3(C)CC[C@H](O)C(C)(C)[C@@H]3[C@@H](O[C@@H]3O[C@H](CO)[C@@H](O)[C@H](O)[C@H]3O[C@@H]3O[C@@H](C)[C@H](O)[C@@H](O)[C@H]3O)C[C@]12C [Re]
[1]; [12]
  Percent Inhibition of HSV-1: 26.7%

## CC(C)=CCC[C@](C)(O[C@@H]1O[C@H](CO[C@@H]2O[C@@H](CO)[C@H](O)[C@H]2O)[C@@H](O)[C@H](O)[C@H]1O)[C@H]1CC[C@]2(C)[C@@H]1[C@H](O)C[C@@H]1[C@@]3(C)CC[C@H](O[C@@H]4O[C@H](CO)[C@@H](O)[C@H](O)[C@H]4O[C@@H]4O[C@H](CO)[C@@H](O)[C@H](O)[C@H]4O)C(C)(C)[C@@H]3CC[C@]12C [Rc]
[1]; [12]
  Percent Inhibition of HSV-1: 28.6%

## CC(C)=CCC[C@](C)(O[C@@H]1O[C@H](CO)[C@@H](O)[C@H](O)[C@H]1O)[C@H]1CC[C@]2(C)[C@@H]1[C@H](O)C[C@@H]1[C@@]3(C)CC[C@H](O)C(C)(C)[C@@H]3[C@@H](O[C@@H]3O[C@H](CO)[C@@H](O)[C@H](O)[C@H]3O)C[C@]12C [Rg1]
[1]; [12]
  Percent Inhibition of HSV-1: 13.2%

## CC(C)[C@H](N)C(=O)OCCOCn1cnc2c(=O)[nH]c(N)nc21 [Valacyclovir, reference compound]
[2]; Human alphaherpesvirus 1, HSV-1 incubated together with valacyclovir (16 μM) 0 to 4 h prior to addition to cells, read-out: percent inhibition of HSV-1
  inhibition at 16 µM: 52.3 to 54.7%
[3]
  viability at 48 h, 16 μM: ~99%
[4]; African green monkey, 48 h, 16 μM
  percent cell death: 1.2 ± 0.4%
[5]
  Number of Plaques: 8.1 ± 1.1
  Percent Reduction (plaques of HSV-1): 85.7%
[1]
  IC50: 13.2 µM
[6]
  reported IC50 ranges: 0.02 to 13.5 µg/mL

## CC(C)=CCC[C@](C)(O[C@@H]1O[C@H](CO[C@@H]2OC[C@@H](O)[C@H](O)[C@H]2O)[C@@H](O)[C@H](O)[C@H]1O)[C@H]1CC[C@]2(C)[C@@H]1[C@H](O)C[C@@H]1[C@@]3(C)CC[C@H](O[C@@H]4O[C@H](CO)[C@@H](O)[C@H](O)[C@H]4O[C@@H]4O[C@H](CO)[C@@H](O)[C@H](O)[C@H]4O)C(C)(C)[C@@H]3CC[C@]12C [Rb3]
[1]; [12]
  Percent Inhibition of HSV-1: 30.9%

## CC(C)=CCC[C@](C)(O[C@@H]1O[C@H](CO)[C@@H](O)[C@H](O)[C@H]1O)[C@H]1CC[C@]2(C)[C@@H]1[C@H](O)C[C@@H]1[C@@]3(C)CC[C@H](O[C@@H]4O[C@H](CO)[C@@H](O)[C@H](O)[C@H]4O[C@@H]4O[C@H](CO)[C@@H](O)[C@H](O)[C@H]4O)C(C)(C)[C@@H]3CC[C@]12C [Rd]
[1]; [12]
  Percent Inhibition of HSV-1: 36.1%

## CC(C)=CCC[C@](C)(O[C@@H]1O[C@H](CO[C@@H]2OC[C@H](O)[C@H](O)[C@H]2O)[C@@H](O)[C@H](O)[C@H]1O)[C@H]1CC[C@]2(C)[C@@H]1[C@H](O)C[C@@H]1[C@@]3(C)CC[C@H](O[C@@H]4O[C@H](CO)[C@@H](O)[C@H](O)[C@H]4O[C@@H]4O[C@H](CO)[C@@H](O)[C@H](O)[C@H]4O)C(C)(C)[C@@H]3CC[C@]12C [Rb2]
[1]; [12]
  Percent Inhibition of HSV-1: 26.4%

## CC(C)=CCCC(C)(O)C1CC[C@]2(C)C1C(O)CC1C3(C)CCC(OC4OC(CO)C(O)C(O)C4OC4OC(CO)C(O)C(O)C4O)C(C)(C)C3CCC12C (some centres unmarked) [Rg3, ginsenoside Rg3]
[7]
  viability at 48 h, 500 μM: < 20%
[8]
  effect on normal WI 38 cells: no effect
[9]
  cytotoxic concentration: 120 µM

## CC(C)=CCC[C@@](C)(O)C1CC[C@]2(C)C1C(O)CC1C3(C)CCC(OC4OC(CO)C(O)C(O)C4OC4OC(CO)C(O)C(O)C4O)C(C)(C)C3CCC12C (stereo partly drawn) [20(R)-Rg3]
[1]; [12]
  Percent Inhibition of HSV-1: 22.7%

## CC(C)=CCC[C@@](C)(O)C1CC[C@]2(C)C1C(O)CC1C3(C)CCC(O)C(C)(C)C3CCC12C (stereo partly drawn) [20(R)-protopanaxadiol]
[1]; [12]
  Percent Inhibition of HSV-1: 14.4%

## CC(C)=CCC[C@](C)(O[C@@H]1O[C@H](CO[C@@H]2O[C@H](CO)[C@@H](O)[C@H](O)[C@H]2O)[C@@H](O)[C@H](O)[C@H]1O)[C@H]1CC[C@]2(C)[C@@H]1[C@H](O)C[C@@H]1[C@@]3(C)CC[C@H](O[C@@H]4O[C@H](CO)[C@@H](O)[C@H](O)[C@H]4O[C@@H]4O[C@H](CO)[C@@H](O)[C@H](O)[C@H]4O)C(C)(C)[C@@H]3CC[C@]12C [Rb1]
[1]; [12]
  Percent Inhibition of HSV-1: 23% and 23.3%

## 20(S)-Rh2
[1]; [12]
  Percent Inhibition of HSV-1: 46.2%

## CC(C)=CCC[C@](C)(O)C1CC[C@]2(C)C1C(O)CC1C3(C)CCC(O)C(C)(C)C3CCC12C (stereo partly drawn) [20(S)-protopanaxadiol]
[10]
  concentration not toxic for PC12 cells: 20 µM

## CC(C)=CCC[C@](C)(O)C1CC[C@]2(C)C1C(O)CC1C3(C)CCC(OC4OC(CO)C(O)C(O)C4OC4OC(CO)C(O)C(O)C4O)C(C)(C)C3CCC12C (stereo partly drawn) [20(S)-Rg3, Ginsenoside 20(S)-Rg3]
[2]; cells treated with compound 4 h prior to HSV-1 addition
  Percent Inhibition of HSV-1: 90.1 ± 11.1%
[2]; virus present on cells 4 h prior to compound addition
  Percent Inhibition of HSV-1: 50.7 ± 4.4%
[11]; 20(S)-Rg3 25 μM
  Percent Inhibition of HSV-2: 14.3 ± 3.3%
[11]; 20(S)-Rg3 50 μM
  Percent Inhibition of HSV-2: 80% and 81.7 ± 10.3%
[11]; 20(S)-Rg3 100 μM
  Percent Inhibition of HSV-2: 114.7 ± 6.7%
[11]; Human alphaherpesvirus 2, two-fold dilutions, linear regression, Vero cells, read-out: IC50 against HSV-2
  IC50: ~35 µM
[3]
  IC50 at 48 h: ~400 µM
[3]; 20(S)-Rg3 50 μM, parentheses = greater proliferation or metabolic activity than untreated cells, read-out: Percent Cell Viability
  viability at 48 h, 50 μM: 113%
[3]; 20(S)-Rg3 100 μM, parentheses = greater proliferation or metabolic activity than untreated cells, read-out: Percent Cell Viability
  viability at 48 h, 100 μM: 114%
[4]; Vero cell toxicity IC50 versus antiviral IC50 (HSV-1 and HSV-2)
  selectivity: 11 fold
[5]
  Number of Plaques: 1.5 ± 0.3
  Percent Reduction (plaques of HSV-1): 97.3%
[1]; 20(S)-Rg3 25 μM, ± standard error
  Percent Inhibition of HSV-1: 11.0 ± 2.6%
[1]; 20(S)-Rg3 50 μM, ± standard error
  Percent Inhibition of HSV-1: 80% and 82.3 ± 3.5%
[1]; 20(S)-Rg3 100 μM, ± standard error
  Percent Inhibition of HSV-1: 90.3 ± 9.9%
[1]
  IC50: ~35 µM
[1]; [12]
  Percent Inhibition of HSV-1: 90.3%
[7]; 20(S)-Rg3 125 μM, parentheses = greater proliferation or metabolic activity than untreated cells
  viability at 48 h, 125 μM: 122%
[7]; 20(S)-Rg3 250 μM, parentheses = greater proliferation or metabolic activity than untreated cells
  viability at 48 h, 250 μM: 129%
[7]
  viability at 48 h, 500 μM: 17.7 ± 14.7%
